Source: patent US12097276B2, “Cosmetic composition comprising theasinensin A” (AMOREPACIFIC CORPORATION, priority 2018, dated 2024)

Key:
[1] = Stability of the active ingredient in solubilized formulations (remaining titer by HPLC); format: physicochemical; settings: stored at 25° C.
Experimental: The following experiment was conducted to investigate the stability of theasinensin A as an active ingredient.
First, a solubilized formulation comprising the theasinensin A prepared in Preparation Example (Example 1) and a solubilized formulation comprising EGCG (Comparative Example 1) were prepared with the following compositions.
Then, the titer of theasinensin A or EGCG remaining in the formulations of Example 1 and Comparative Example 1 was analyzed by high-performance liquid chromatography (HPLC) with 1-week intervals. Specifically, after storing 10 mL of each composition of Example 1 and Comparative Example 1 at 25° C. and sonicating the same with 1-week intervals after diluting 10 fold with methanol followed by filtering, the content was analyzed by HPLC.

[2] = tested on: melanin production in B16 cells; assay: Inhibition of intra/extracellular melanin production in α-MSH-treated B16 cells; format: cell-based; settings: 72 hours; for extracellular melanin content compared to the control group treated only with α-MSH / intracellular melanin content compared to the control group treated only with α-MSH: B16 cells, 200 nM α-MSH, 2.5, 5 or 10 ppm
Experimental: For investigation of the skin-brightening effect of theasinensin A, the effect of inhibiting intra/extracellular melanin production was tested as follows.
First, after treating B16 cells (ATCC, Cat No CRL-6475) with 200 nM of α-melanocyte-stimulating hormone (α-MSH) and with theasinensin A as an example of the present disclosure or EGCG as a comparative example at nontoxic concentrations of 10 ppm or lower (2.5, 5 or 10 ppm), the intracellular and extracellular melanin contents 72 hours after the treatment were measured by correcting to the protein contents, and represented as % of melanin contents with respect to a non-theasinensin A-treated control group.
The intracellular melanin content is shown in FIG. 5 (TSA) and FIG. 6 (EGCG), and the extracellular melanin content is shown in FIG. 7 (TSA) and FIG. 8 (EGCG).

[3] = DPPH radical-scavenging assay (antioxidant effect); settings: 100 μM DPPH in ethanol, 37° C., 30 minutes
Experimental: For investigation of the antioxidant effect of theasinensin A, the effect of inhibiting 2,2-diphenyl-1-picrylhydrazyl (DPPH) was tested as follows.
The 2,2-diphenyl-1-picrylhydrazyl (DPPH, Sigma D9132) radical dissolved in an organic solvent has the maximum absorbance at 515 nm. Since an antioxidant substance scavenges the DPPH radical and turns it colorless, antioxidant effect can be compared by measuring the DPPH radical-scavenging activity of theasinensin A through DPPH assay.
First, theasinensin A (TSA) was dissolved in ethanol such that the concentration of the theasinensin A (TSA) was 0.3125, 0.625, 1.25, 2.5, 5 and 10 ppm, respectively. The solutions of different concentrations were added to a 96-well plate, 10 μL each. Then, after adding 190 μL of 100 μM DPPH completely dissolved in ethanol to each solution and storing at 37° C. for 30 minutes, absorbance was measured at 515 nm.
DPPH assay was conducted in the same manner for 0.625, 1.25, 2.5, 5 and 10 ppm of vitamin C (Vit.C) as positive control groups and a negative control group (N.T.) not treated with theasinensin A (TSA) or vitamin C (Vit.C).

[4] = tested on: matrix metalloproteinase-1 (MMP-1) expression in UVB-irradiated HS68 cells; assay: Inhibition of MMP-1 expression in UVB-irradiated HS68 cells (ELISA); format: cell-based, human; settings: 48 hours
Experimental: For investigation of the effect of reducing skin wrinkles and enhancing skin elasticity of theasinensin A, the effect of inhibiting the expression of matrix metalloproteinase-1 (MMP-1), which is a collagenase in the human body, was tested as follows.
First, a cell culture was prepared by treating UVB-irradiated HS68 cells (ATCC, Cat No CRL-1635) with the theasinensin A prepared in Preparation Example at 2.5, 5 or 10 ppm. After culturing HS68 cells (ATCC, Cat No CRL-1635) in a separate medium and adding phosphate-buffered saline (PBS) thereto after removing the medium, UVB was irradiated with an intensity of 30 mJ/cm^2. The UVB-irradiated cells were treated with the previously prepared theasinensin A-treated culture and cultured for 48 hours in an incubator. After recovering the culture, MMP-1 expression level was measured using a MMP-1 ELISA kit (Amersham, RPN2610).

[5] = about 4 weeks later, solubilized formulation with 0.02 wt % active (Example 1 / Comparative Example 1)

O=C(O[C@@H]1Cc2c(O)cc(O)cc2O[C@@H]1c1cc(O)c(O)c(O)c1)c1cc(O)c(O)c(O)c1 [EGCG, epigallocatechin gallate, reference compound]
amount of active ingredient remaining in the solubilized formulation (of total amount used) ([1]; 1 week later, solubilized formulation with 0.02 wt % active (Comparative Example 1)): less than 80 wt % | amount of active ingredient remaining in the solubilized formulation (of total amount used) [1, 5]: less than 40 wt % | extracellular melanin content compared to the control group treated only with α-MSH [2]: increased | intracellular melanin content compared to the control group treated only with α-MSH [2]: increased

O=C(O[C@@H]1Cc2c(O)cc(O)cc2O[C@@H]1c1cc(O)c(O)c(O)c1-c1c([C@H]2Oc3cc(O)cc(O)c3C[C@H]2OC(=O)c2cc(O)c(O)c(O)c2)cc(O)c(O)c1O)c1cc(O)c(O)c(O)c1 [theasinensin A]
concentration at which DPPH activity was inhibited significantly [3]: ≥ 0.3 ppm | IC50 of DPPH activity inhibition ([3]; absorbance at 515 nm): 5.9 ppm | amount of active ingredient remaining in the solubilized formulation (of total amount used) [1, 5]: ≥ 87 wt % | inhibition of MMP-1 expression ([4]; UVB-irradiated (30 mJ/cm^2) HS68 cells, 2.5, 5 or 10 ppm, concentration-dependent): ≥ 50% | concentration at which MMP-1 expression level was inhibited significantly ([4]; UVB-irradiated HS68 cells): ≥ 2.5 ppm | extracellular melanin content compared to the control group treated only with α-MSH [2]: decreased melanin content | intracellular melanin content compared to the control group treated only with α-MSH [2]: decreased melanin content | inhibition at 10 ppm ([2]; Mus musculus, 10 ppm, B16 cells with 200 nM α-MSH): ~30%
